A word on the Solubility: it is the dissolved amount per volume that the medium holds.

Molecules are shown by their SMILES.

The test system of series [1] is C. urealyticum CIP-I-2126 strain. In words: 2-EHN degradation with a non-biodegradable hydrophobic liquid phase (respirometer). The settings on record: per flask containing 500 mL medium at 500 mg/L 2-EHN. Type of series: cell-based, Corynebacterium urealyticum. How it is done: The capacity for degradation of 2-EHN by the C. urealyticum CIP-I-2126 strain in the presence of a non-biodegradable hydrophobic liquid phase used as a substrate reservoir is studied. The cultures were carried out at 30° C. with a respirometer so as to determine the kinetic characteristics of the biodegradation.
Two non-biodegradable liquid phases were tested: 2,2,4,4,6,8,8-heptamethylnonane (HMN) and silicone oil (Table 3).

The conditions of series [2]: cited from earlier work.
For series [3] the following is noted: cited from earlier work. The source holds these as a separate data set.
Series [4] relates to zebrafish. The note with it: acute toxicity; cited from earlier work.
For series [5], the system named is Daphnia. The settings on record: acute toxicity; cited from earlier work.

Take `CCCCC(CC)CO[N+](=O)[O-]` (stereo not shown) [2-EHN, 2-ethylhexyl nitrate]: the “MAXIMUM DEGRADATION RATE (MMOLO2/J)” value is 5.3 MMOLO2/J in series [1] (liquid phase added: HMN), 5.8 MMOLO2/J in series [1] (liquid phase added: Silicone oil) and 0.3 MMOLO2/J in series [1] (liquid phase added: none). For the same compound, the “Solubility at 20° C.” value in series [2] was 12.6 µg/mL. In addition, the “Vapour pressure at 20° C.” value in series [3] was 27 Pa. Also, the “LC50 (50% lethal concentrations)” value in series [4] and in series [5] was “higher than its water solubility” throughout.

The values are drawn from patent publication US8366933B2, “Method for bacterial treatment of effluents containing 2-ethylhexyl nitrate” (Commissariat a l'Energie Atomique, priority 2007, dated 2013).
